The values that follow come from patent US20180099931A1 (AbbVie S.à.r.l., priority 2016, published 2018).

This test deals with T1, F508delCFTR (Homo sapiens, UniProt P13569, DEL508-508).
T1 construct: expressed in transfected cells; host or cells: CFBE41o- human lung-derived epithelial cells (CFBE4lo-F508delCFTR-HRP), doxycycline-inducible
Nature of the test: Cell Surface Expression-Horse Radish Peroxidase (CSE-HRP) Assay.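 For Maximum % activity (with co-corrector): co-corrector and positive control are both the same reference corrector at 2 µM.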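 For Maximum % activity (without co-corrector): percent of the 2 µM on-plate positive control corrector response above DMSO.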 Conditions: for Emax: read-out: Maximum % activity (without co-corrector). The format is cell-based.

Where [1] appears, read: CSE-HRP, test compound without co-corrector, read-out: EC50 (without co-corrector).
The mark [2] stands for this setting: CSE-HRP, with co-corrector (2 μM of 3-[(2R,4R)-4-({[1-(2,2-difluoro-1,3-benzodioxol-5-yl)cyclopropyl]carbonyl}amino)-7-methoxy-3,4-dihydro-2H-chromen-2-yl]benzoic acid), read-out: EC50 (with co-corrector).
Setting [3] is: CSE-HRP, with co-corrector (2 μM), maximum at any tested concentration, normalized to on-plate positive control.
Where [4] appears, read: CSE-HRP, without co-corrector, maximum at any tested concentration, normalized to on-plate positive control.
The mark [5] stands for this setting: test compound without co-corrector, read-out: EC50 (without co-corrector).
[6] abbreviates: with co-corrector (2 μM of 3-[(2R,4R)-4-({[1-(2,2-difluoro-1,3-benzodioxol-5-yl)cyclopropyl]carbonyl}amino)-7-methoxy-3,4-dihydro-2H-chromen-2-yl]benzoic acid), read-out: EC50 (with co-corrector).
[7] abbreviates: with co-corrector (2 μM), maximum at any tested concentration, normalized to on-plate positive control.
Setting [8] is: without co-corrector, maximum at any tested concentration, normalized to on-plate positive control.
[9] abbreviates: test compound without co-corrector, maximum at any tested concentration, normalized to on-plate positive control.
The mark [10] stands for this setting: with co-corrector (2 μM of 3-[(2R,4R)-4-({[1-(2,2-difluoro-1,3-benzodioxol-5-yl)cyclopropyl]carbonyl}amino)-7-methoxy-3,4-dihydro-2H-chromen-2-yl]benzoic acid), maximum at any tested concentration, normalized to on-plate positive control.

Read-outs that look alike come from different tables or passages of the source. A value given as a limit tells only on which side of the number the result lay.

T1 sequence (P13569 with tags, fused parts or gaps DEL508-508): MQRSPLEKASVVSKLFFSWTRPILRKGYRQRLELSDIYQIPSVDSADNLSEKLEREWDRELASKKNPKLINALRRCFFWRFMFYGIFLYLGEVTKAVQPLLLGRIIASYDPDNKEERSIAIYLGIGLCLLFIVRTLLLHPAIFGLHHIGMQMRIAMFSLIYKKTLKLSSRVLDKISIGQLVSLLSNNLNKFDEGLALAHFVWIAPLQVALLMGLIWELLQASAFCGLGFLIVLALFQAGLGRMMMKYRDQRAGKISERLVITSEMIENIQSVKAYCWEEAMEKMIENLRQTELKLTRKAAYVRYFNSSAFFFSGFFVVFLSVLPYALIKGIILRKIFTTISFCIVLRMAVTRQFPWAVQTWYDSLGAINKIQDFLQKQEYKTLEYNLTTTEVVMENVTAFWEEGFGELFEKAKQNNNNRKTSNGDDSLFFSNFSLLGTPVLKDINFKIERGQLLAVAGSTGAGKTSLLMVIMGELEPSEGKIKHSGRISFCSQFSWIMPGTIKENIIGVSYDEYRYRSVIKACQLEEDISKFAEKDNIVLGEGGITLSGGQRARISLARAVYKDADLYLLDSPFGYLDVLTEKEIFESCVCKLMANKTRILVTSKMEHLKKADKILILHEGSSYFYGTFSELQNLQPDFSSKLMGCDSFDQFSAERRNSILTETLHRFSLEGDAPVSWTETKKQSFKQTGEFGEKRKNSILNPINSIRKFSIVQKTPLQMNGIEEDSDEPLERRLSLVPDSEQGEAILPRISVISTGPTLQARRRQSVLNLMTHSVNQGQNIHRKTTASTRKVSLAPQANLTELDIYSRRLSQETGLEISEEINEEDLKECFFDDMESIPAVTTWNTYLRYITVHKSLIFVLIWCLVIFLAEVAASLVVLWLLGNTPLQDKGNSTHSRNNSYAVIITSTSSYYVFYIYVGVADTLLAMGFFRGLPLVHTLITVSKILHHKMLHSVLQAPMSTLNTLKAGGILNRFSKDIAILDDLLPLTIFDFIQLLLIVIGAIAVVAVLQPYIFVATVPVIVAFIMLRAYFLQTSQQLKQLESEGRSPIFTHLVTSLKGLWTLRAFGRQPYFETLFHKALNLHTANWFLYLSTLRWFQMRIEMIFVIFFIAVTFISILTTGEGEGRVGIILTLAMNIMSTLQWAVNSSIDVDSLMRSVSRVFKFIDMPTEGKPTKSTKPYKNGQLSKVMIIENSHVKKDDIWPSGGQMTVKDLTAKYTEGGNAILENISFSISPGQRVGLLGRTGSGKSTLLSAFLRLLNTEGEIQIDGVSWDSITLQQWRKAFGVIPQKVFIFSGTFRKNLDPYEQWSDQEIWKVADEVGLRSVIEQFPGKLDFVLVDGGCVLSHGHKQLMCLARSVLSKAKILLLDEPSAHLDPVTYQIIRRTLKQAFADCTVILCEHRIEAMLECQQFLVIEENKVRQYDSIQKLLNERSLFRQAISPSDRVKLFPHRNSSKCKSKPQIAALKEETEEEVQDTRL

For the compound `COc1ccc(C(F)(F)F)cc1CN[C@H]1[C@H](C(C)(C)C)[C@@H](C(=O)O)N(C(=O)[C@@H](C)OC)[C@H]1c1ccccc1` [II-120], the EC50 is 1000 to 10000 nM under setting [1] and 1000 to 10000 nM under setting [2]. In addition, under setting [3], the “Maximum % activity (with co-corrector)” value is listed as “+++ (≥350)”. For the same compound, under setting [4], the Emax fell in the range of 100 to 200%.
Regarding `CC(C)OC(=O)N1[C@H](C(=O)O)[C@@H](C(C)(C)C)[C@H](NCC(C)(C)c2ccccc2)[C@@H]1c1ccccc1` [Example I-264], the EC50 by setting is: under setting [1], 1000 to 10000 nM; under setting [2], 1000 to 10000 nM. Under setting [3], the “Maximum % activity (with co-corrector)” value was “++ (≥150 and <350)”. Under setting [4], the Emax was less than 100%.
Take `COc1ccc(C(C)(C)C)cc1CN[C@H]1[C@H](C(C)(C)C)[C@@H](C(=O)O)N(C(=O)c2ccccc2)[C@H]1c1ccccc1` [Example I-65]: the EC50 was 1000 to 10000 nM under setting [5] and 1000 to 10000 nM under setting [6]. Besides, the “Maximum % activity (with co-corrector)” value under setting [7] is “+++ (≥350)”. In addition, under setting [8], the Emax fell in the range of 100 to 200%.
For the compound `COc1nc(C(C)(C)C)ccc1CN[C@H]1[C@H](C(C)(C)C)[C@@H](C(=O)O)N(C(=O)C2CCCC(F)(F)C2)[C@H]1c1ccccc1` (relative stereo) [Example 53, (2S,3S,4S,5S)-3-tert-butyl-4-{[(6-tert-butyl-2-methoxypyridin-3-yl)methyl]amino}-1-[(1R*)-3,3-difluorocyclohexane-1-carbonyl]-5-phenylpyrrolidine-2-carboxylic acid], the EC50 reads like this: under setting [5], 1000 to 10000 nM; under setting [6], less than 1000 nM. For the same compound, under setting [7], the “Maximum % activity (with co-corrector)” value was “+++ (≥350)”. Moreover, the Emax under setting [8] was greater than 200%.
For `COc1ncc(C2CCCCC2)cc1CN[C@H]1[C@H](C(C)(C)C)[C@@H](C(=O)O)N(C(=O)C2CCCCC2)[C@H]1c1ccccc1` [Example I-72], in that order: less than 1000 nM, less than 1000 nM, “+++ (≥350)” and greater than 200%.
In the case of `Cc1cc(C(F)(F)F)cc(N[C@@H]2[C@@H](C(C)(C)C)[C@H](C(=O)O)N(C(=O)Cc3ccccc3)[C@@H]2c2ccccc2)n1` (racemic) [II-55], the EC50 under setting [1] is greater than 10000 nM and the concentration for a half-maximal effect (EC50) under setting [2] lay within 1000 to 10000 nM. Also, under setting [3], the “Maximum % activity (with co-corrector)” value was “++ (≥150 and <350)”. Moreover, the Emax under setting [4] was less than 100%.
Turning to `COc1ccc(C(C)(C)C)cc1CN[C@H]1[C@H](C(C)(C)C)[C@@H](C(=O)O)N(C(=O)[C@@H](C)c2ccccc2)[C@H]1c1ccccc1` [II-326], under setting [9], the Emax is greater than 200%. For the same compound, the EC50 is, setting by setting: under setting [5], 1000 to 10000 nM; under setting [6], less than 1000 nM. Also, under setting [10], the “Maximum % activity (with co-corrector)” value is given as “+++ (≥350)”.
`COc1ccc(C(C)(C)C)cc1CN[C@H]1[C@H](C23CC(C2)C3)[C@@H](C(=O)O)N(C(=O)OC(C)C)[C@H]1c1ccccc1F` [III-222]: the Emax under setting [9] is 100 to 200%. Also, the EC50 runs as follows: under setting [5], 1000 to 10000 nM; under setting [6], 1000 to 10000 nM. Further, the “Maximum % activity (with co-corrector)” value under setting [7] is given as “+++ (≥350)”.
Turning to `COc1ncc(C(F)(F)F)cc1CN[C@H]1[C@H](C(C)(C)C)[C@@H](C(=O)O)N(C(=O)C2CCCCC2)[C@H]1c1cccnc1N(C)C` [Example I-120], the EC50 was in the range of 1000 to 10000 nM under setting [5] and 1000 to 10000 nM under setting [6]. The “Maximum % activity (with co-corrector)” value under setting [7] was “+++ (≥350)”. The Emax under setting [8] is 100 to 200%.
Consider `COc1ccc(SC(F)(F)F)cc1CN[C@H]1[C@H](C(C)(C)C)[C@@H](C(=O)O)N(C(=O)C2CCCCC2)[C@H]1c1ccccc1` [Example I-184], for which the EC50 runs as follows: under setting [5], 1000 to 10000 nM; under setting [6], less than 1000 nM. In addition, the “Maximum % activity (with co-corrector)” value under setting [7] is listed as “+++ (≥350)”. For the same compound, under setting [8], the Emax was in the range of 100 to 200%.
The corresponding values for `COc1ccc(C(F)(F)F)cc1CN[C@H]1[C@H](C2(C)CC2)[C@@H](C(=O)O)N(C(=O)C2CCCCC2)[C@H]1c1ccccc1` [Example I-136] are 1000 to 10000 nM, 1000 to 10000 nM, “+++ (≥350)” and 100 to 200%.
On to `Cc1cc(C(F)(F)F)cc(N[C@H]2[C@H](C(C)(C)C)[C@@H](C(=O)O)N(C(=O)C3CCCCC3)[C@H]2c2ccccc2C)n1` [II-575], for which, under setting [9], the Emax lay in the range of 100 to 200%. Also, the EC50 under setting [5] lay in the range of 1000 to 10000 nM and the EC50 under setting [6] lay within 1000 to 10000 nM. Besides, the “Maximum % activity (with co-corrector)” value under setting [10] is “+++ (≥350)”.
Turning to `COc1nc2ccccc2cc1CN[C@H]1[C@H](C(C)(C)C)[C@@H](C(=O)O)N(C(=O)C2CCOCC2)[C@H]1c1cccnc1N(C)C` [II-600], the Emax under setting [9] is less than 100%. For the same compound, the EC50 runs as follows: under setting [5], 1000 to 10000 nM; under setting [6], 1000 to 10000 nM. In addition, the “Maximum % activity (with co-corrector)” value under setting [10] was “++ (≥150 and <350)”.
`COc1ncc(C(F)(F)F)cc1CN[C@H]1[C@H](C(C)(C)C)[C@@H](C(=O)O)N(C(=O)C2CCCCC2)[C@H]1c1ccccc1` [Example 12, (2S,3S,4S,5S)-3-tert-butyl-1-(cyclohexanecarbonyl)-4-({[2-methoxy-5-(trifluoromethyl)pyridin-3-yl]methyl}amino)-5-phenylpyrrolidine-2-carboxylic acid]: the EC50 under setting [5] was less than 1000 nM and the EC50 under setting [6] is less than 1000 nM. Moreover, the “Maximum % activity (with co-corrector)” value under setting [7] was “+++ (≥350)”. Also, under setting [8], the Emax was 100 to 200%.
For `COc1ncc(C(C)(C)C)cc1CN[C@H]1[C@H](C(C)(C)C)[C@@H](C(=O)O)N(C(=O)[C@@H]2CCCCO2)[C@H]1c1cccnc1N(C)C` [Example I-142], the EC50 lay in the range of 1000 to 10000 nM under setting [5] and 1000 to 10000 nM under setting [6]. Also, the “Maximum % activity (with co-corrector)” value under setting [7] is recorded as “+++ (≥350)”. In addition, under setting [8], the Emax was greater than 200%.
With `COc1ccc(C(F)(F)F)cc1CN[C@@H]1[C@@H](C(C)(C)C)[C@H](C(=O)O)N(C(=O)C2COCCO2)[C@@H]1c1ccccc1` (mixture of isomers) [II-85], the EC50 fell in the range of 1000 to 10000 nM under setting [1] and 1000 to 10000 nM under setting [2]. For the same compound, the “Maximum % activity (with co-corrector)” value under setting [3] is “++ (≥150 and <350)”. For the same compound, the Emax under setting [4] was less than 100%.
`COc1ccc(Br)cc1CN[C@H]1[C@H](C(C)(C)C)[C@@H](C(=O)O)N(C(=O)OC(C)C)[C@H]1c1ccccc1` [II-171]: the EC50 by setting is: under setting [1], 1000 to 10000 nM; under setting [2], 1000 to 10000 nM. Moreover, under setting [3], the “Maximum % activity (with co-corrector)” value is reported as “+++ (≥350)”. For the same compound, the Emax under setting [4] is greater than 200%.
As for `COC(C)(C)[C@@H]1[C@@H](Nc2cc(C(F)(F)F)cc(C)n2)[C@@H](c2ccccc2)N(C(=O)C2CCCCC2)[C@H]1C(=O)O` (racemic) [Example 5, rac-(2R,3R,4R,5R)-1-(cyclohexanecarbonyl)-3-(2-methoxypropan-2-yl)-4-{[6-methyl-4-(trifluoromethyl)pyridin-2-yl]amino}-5-phenylpyrrolidine-2-carboxylic acid], the EC50 reads like this: under setting [5], 1000 to 10000 nM; under setting [6], 1000 to 10000 nM. The “Maximum % activity (with co-corrector)” value under setting [7] is recorded as “+++ (≥350)”. The Emax under setting [8] is less than 100%.
In the case of `COc1ncc(C2=CCOC2)cc1CN[C@H]1[C@H](C(C)(C)C)[C@@H](C(=O)O)N(C(=O)C2CCCCC2)[C@H]1c1ccccc1` [II-350], the Emax under setting [9] is 100 to 200%. For the same compound, the EC50 under setting [5] lay within 1000 to 10000 nM and the EC50 under setting [6] lay within 1000 to 10000 nM. Moreover, the “Maximum % activity (with co-corrector)” value under setting [10] is recorded as “+++ (≥350)”.
Consider `COc1ccc(C(F)(F)F)cc1CN[C@H]1[C@H](C(C)(C)C)[C@@H](C(=O)O)N(C(=O)C2Cc3ccccc3O2)[C@H]1c1ccccc1` (single isomer, unassigned) [II-266], for which the EC50 by setting is: under setting [1], 1000 to 10000 nM; under setting [2], less than 1000 nM. Further, where the note is “CSE-HRP, with co-corrector (2 μM), maximum at any tested concentration, normalized to on-plate positive control, 2 µM”, the “Maximum % activity (with co-corrector)” value was “+++ (≥350)”. In addition, the “Maximum % activity (without co-corrector)” value under setting [4] was “++ (≥100 and <200)”.
On to `CC(C)(C)[C@@H]1[C@@H](NCc2cc(Cl)ccc2OC(F)F)[C@@H](c2ccccc2)N(C(=O)C2CCCCC2)[C@H]1C(=O)O` (racemic) [II-8], for which the EC50 reads like this: under setting [1], 1000 to 10000 nM; under setting [2], 1000 to 10000 nM. The “Maximum % activity (with co-corrector)” value under setting [3] is “+++ (≥350)”. For the same compound, the Emax under setting [4] is less than 100%.
On to `COc1ncc(C(F)(F)F)cc1CN[C@H]1[C@H](C(C)(C)C)[C@@H](C(=O)O)N(C(=O)C2CCc3ccc(F)cc3O2)[C@H]1c1ccccc1` (stereo partly drawn) [II-435], for which the Emax under setting [9] was less than 100%. In addition, the EC50 lay in the range of 1000 to 10000 nM under setting [5] and 1000 to 10000 nM under setting [6]. For the same compound, the “Maximum % activity (with co-corrector)” value under setting [10] is “++ (≥150 and <350)”.
On to `COc1ccc(C(C)(C)C)cc1CN[C@H]1[C@H](C(C)(C)C)[C@@H](C(=O)O)N(C(=O)Cc2cccc(O)c2)[C@H]1c1ccccc1` [II-196], for which the EC50 reads like this: under setting [1], 1000 to 10000 nM; under setting [2], 1000 to 10000 nM. In addition, the “Maximum % activity (with co-corrector)” value under setting [3] is “+++ (≥350)”. Also, the Emax under setting [4] was greater than 200%.
Consider `COc1nc(C(C)(C)C)ccc1CN[C@H]1[C@H](C(C)(C)C)[C@@H](C(=O)O)N(C(=O)[C@@H]2CCCCO2)[C@H]1c1cccnc1N(C)C` [Example I-235], for which the EC50 was 1000 to 10000 nM under setting [5] and less than 1000 nM under setting [6]. Moreover, under setting [7], the “Maximum % activity (with co-corrector)” value is “+++ (≥350)”. Besides, the Emax under setting [8] is 100 to 200%.

The EC50 is the concentration needed to bring the measured effect to its halfway point.
